Patent publication US9884063B2, “Amido-substituted azole compounds” (Bayer Pharma Aktiengesellschaft, priority 2014, dated 2018)

Key:
TNKS1 = target: T1, TNKS1 (Homo sapiens, UniProt O95271); experiment: TNKS1 Assay 1 (TNKS1 Histone Ribosylation Assay Kit, biotin-labeled NAD+); format: biochemical; conditions: chemiluminescent readout, 384 well, Table 1
T1 sequence (O95271 1-1327): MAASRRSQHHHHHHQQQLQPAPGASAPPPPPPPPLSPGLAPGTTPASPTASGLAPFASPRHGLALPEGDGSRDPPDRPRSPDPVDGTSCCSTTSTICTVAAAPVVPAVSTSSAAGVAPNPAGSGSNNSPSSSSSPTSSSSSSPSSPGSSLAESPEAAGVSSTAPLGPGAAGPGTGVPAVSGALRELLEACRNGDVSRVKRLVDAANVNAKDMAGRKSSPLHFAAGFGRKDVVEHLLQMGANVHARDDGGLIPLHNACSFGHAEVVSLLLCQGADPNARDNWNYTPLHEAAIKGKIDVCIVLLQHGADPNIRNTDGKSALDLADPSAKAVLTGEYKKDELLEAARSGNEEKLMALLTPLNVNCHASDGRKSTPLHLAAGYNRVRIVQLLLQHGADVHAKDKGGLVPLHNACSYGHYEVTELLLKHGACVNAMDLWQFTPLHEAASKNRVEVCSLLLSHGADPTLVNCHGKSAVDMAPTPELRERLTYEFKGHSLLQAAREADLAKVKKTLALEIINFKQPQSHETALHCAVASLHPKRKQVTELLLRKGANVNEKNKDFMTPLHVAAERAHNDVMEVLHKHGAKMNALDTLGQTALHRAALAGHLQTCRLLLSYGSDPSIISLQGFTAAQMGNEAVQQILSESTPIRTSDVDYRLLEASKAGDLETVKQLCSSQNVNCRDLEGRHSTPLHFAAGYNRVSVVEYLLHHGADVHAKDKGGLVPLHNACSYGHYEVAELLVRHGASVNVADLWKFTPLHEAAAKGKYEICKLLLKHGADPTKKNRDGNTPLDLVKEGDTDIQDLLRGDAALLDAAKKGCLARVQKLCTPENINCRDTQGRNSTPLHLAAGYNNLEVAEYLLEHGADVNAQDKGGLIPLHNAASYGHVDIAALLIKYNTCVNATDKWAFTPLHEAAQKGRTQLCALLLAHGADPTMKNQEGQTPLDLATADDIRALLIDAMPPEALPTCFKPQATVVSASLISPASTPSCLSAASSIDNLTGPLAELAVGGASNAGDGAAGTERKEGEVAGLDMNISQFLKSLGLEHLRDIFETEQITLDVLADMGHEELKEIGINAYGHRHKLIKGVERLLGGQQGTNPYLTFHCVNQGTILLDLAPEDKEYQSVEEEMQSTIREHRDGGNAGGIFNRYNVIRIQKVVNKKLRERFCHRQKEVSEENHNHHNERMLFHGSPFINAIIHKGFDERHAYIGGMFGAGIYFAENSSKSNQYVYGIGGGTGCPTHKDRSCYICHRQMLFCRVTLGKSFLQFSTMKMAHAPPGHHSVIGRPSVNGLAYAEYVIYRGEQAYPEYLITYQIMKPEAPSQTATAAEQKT
Protocol: The potency of the compounds according to the invention was assessed by applying an in vitro inhibition assay. The TNKS1 catalyzed NAD^+-dependent ribosylation of a suitable protein substrate was detected using a commercially available biotin/streptavidin binding based assay format [TNKS1 Histone Ribosylation Assay Kit (Biotin-labeled NAD+), Catalog #80579; BPS Bioscience, San Diego, USA]. Here, the incorporation of a biotin-labeled NAD+ during the TNKS1 catalyzed ribosylation reaction was detected with a streptavidin-HRP coupled chemi-luminescent readout. The intensity of the readout signal is proportional to the incorporated NAD^+. Inhibition of TNKS1 leads to a decreased incorporation of NAD^+ and consequently to a lower readout signal intensity. The concentration of a test compound which inhibits the enzyme activity by 50% (corresponds to half of the normed readout signal intensity) is reported as IC50.
The assay was conducted in a 384 well MTP format according to the manufacturer's protocol [bpsbioscience.com/poly-adp-ribose-polymerase/assay-kit/tnks1-histone-ribosylation-assay-kit-biotin-labeled-nad-80579 referencing: Brown, J. A., Marala, R. B. J. Pharmacol. Toxicol. Methods 2002 47:137-41] and using a BMG Pherastar MTP reader [BMG-Labtech, Offenburg, Germany].

[1] = system: HEK293 FOP control reporter cell line; experiment: HEK293 FOP Assay (FOP control vector luciferase reporter); format: cell-based; conditions: Homo sapiens; HEK293 FOP control reporter cell line, 16 hours incubation, compound dilution series 50 μM to 15 nM
Outline: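 Compound series 50 μM to 15 nM, 3.16-fold steps, were diluted in CAFTY buffer (pH 7.4, 2 mM Ca2+, 0.01% BSA) and tested alongside the TOP reporter line. Human Wnt-3a was added at 2500–5 ng/ml in two-fold steps. The control HEK293 line stably holds an FOP vector whose TCF elements are randomized and non-functional.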

CNC(=O)c1[nH]cnc1C(=O)Nc1ccc(NC(=O)c2cc(Cl)sc2Cl)cc1 [Example 213, N^4-(4-{[(2,5-dichloro-3-thienyl)carbonyl]amino}phenyl)-N^5-methyl-1H-imidazole-4,5-dicarboxamide]
IC50 (TNKS1): > 100 µM | IC50 [1]: 8.4 µM
